This passage reports GI50 and TGI results from PubChem BioAssay (NCI).

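Five concentrations, 48 hours, 96-well plates. GI50 marks 50% less growth. TGI: concentration producing complete growth inhibition.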

Test systems include A498 renal; CCRF-CEM leukemia; EKVX NSCLC; HS 578T breast; MDA-MB-231 breast; OVCAR-5 ovarian; SF-539 CNS; SK-OV-3 ovarian; TK-10 renal; UACC-257 melanoma.
Test in all cases: NCI tumour cell line growth inhibition, 48 h

As for `CC(C)(C)[OH+][O-].[O-]c1ccc(Cl)cc1C=Nc1ccc(Cl)cc1[O-].[O]=[V]`, the GI50 in the assay with A498 renal was 27.7 µM; with CCRF-CEM leukemia, 3.93 µM; in the assay with EKVX NSCLC, 2.84 µM; with HS 578T breast, 19.4 µM; in the assay with MDA-MB-231 breast it was 29.9 µM; in the assay on OVCAR-5 ovarian, 18.4 µM. Moreover, the GI50 in the assay on SF-539 CNS is 17.8 µM; in the assay with SK-OV-3 ovarian, 19.6 µM; in the assay on TK-10 renal, 13.8 µM; in the assay on UACC-257 melanoma it was 13.9 µM. Also, the TGI in the assay on A498 renal is 64.2 µM; with CCRF-CEM leukemia it was 35.3 µM; in the assay on EKVX NSCLC, 18.1 µM; in the assay with HS 578T breast, 52.6 µM; with MDA-MB-231 breast it was more than 100 µM; in the assay on OVCAR-5 ovarian, 47.3 µM. The TGI is 32.5 µM in the assay with SF-539 CNS, 46.6 µM with SK-OV-3 ovarian, 73.7 µM in the assay with TK-10 renal and 36.4 µM in the assay with UACC-257 melanoma.

Consider `CC(C)(C)[Si](C)(C)OCC1CCC(n2cnc3c(NC(=O)c4ccccc4)ncnc32)O1` (configuration not stated), for which the TGI worked out at 35.5 µM in the assay with A498 renal; 47.1 µM with CCRF-CEM leukemia; 32.6 µM in the assay with EKVX NSCLC; 33 µM in the assay on HS 578T breast; 37.1 µM in the assay with MDA-MB-231 breast; 32.3 µM with OVCAR-5 ovarian. For the same compound, the TGI in the assay on SF-539 CNS is 32.9 µM; in the assay on SK-OV-3 ovarian, 44.9 µM; with TK-10 renal it was 38.6 µM; in the assay on UACC-257 melanoma, 33.4 µM.

Regarding `O=C1/C(=C/c2cccc([N+](=O)[O-])c2)COc2ccc(O)c(O)c21`, the GI50 in the assay with A498 renal is 1.42 µM; with CCRF-CEM leukemia, 0.335 µM; in the assay on EKVX NSCLC it was 1.9 µM; in the assay on HS 578T breast, 2.04 µM; in the assay with MDA-MB-231 breast, 1.47 µM; in the assay with OVCAR-5 ovarian it was 1.8 µM. In addition, the GI50 with SF-539 CNS was 1.61 µM; in the assay on SK-OV-3 ovarian, 3.41 µM; with TK-10 renal, 1.7 µM; with UACC-257 melanoma it was 1.86 µM. In addition, the TGI in the assay with A498 renal worked out at 3.26 µM; in the assay on CCRF-CEM leukemia it was 2.43 µM; in the assay on EKVX NSCLC, 4.1 µM; in the assay with HS 578T breast it was 7.47 µM; in the assay with MDA-MB-231 breast, 2.98 µM; in the assay on OVCAR-5 ovarian it was 3.44 µM. Moreover, the TGI came to 3.57 µM in the assay on SF-539 CNS, 12.6 µM in the assay with SK-OV-3 ovarian, 3.21 µM in the assay on TK-10 renal and 4.81 µM with UACC-257 melanoma.

For `Cc1ccc(NC(c2ccccc2)c2ccc3cccnc3c2O)cc1` (configuration not stated), the TGI in the assay on A498 renal stood at 54.8 µM; in the assay with CCRF-CEM leukemia, 4.27 µM; with EKVX NSCLC, 15 µM; with HS 578T breast, 61.3 µM; with MDA-MB-231 breast, 13.5 µM; in the assay on OVCAR-5 ovarian, 22.2 µM. For the same compound, the TGI stood at 8.18 µM in the assay with SF-539 CNS, 23.8 µM with SK-OV-3 ovarian, 14.3 µM in the assay on TK-10 renal and 25.8 µM with UACC-257 melanoma.

On to `O=C(/C=C/c1ccco1)c1ccc(Nc2nc(Nc3ccc(F)cc3)nc(Nc3ccc(Cl)cc3)n2)cc1`, for which the GI50 was 2.39 µM in the assay on A498 renal; more than 37.8 µM with CCRF-CEM leukemia; more than 32.1 µM in the assay on EKVX NSCLC; 26 µM in the assay with HS 578T breast; 16.2 µM in the assay with MDA-MB-231 breast; more than 100 µM with OVCAR-5 ovarian. For the same compound, the GI50 in the assay with SF-539 CNS is 14.2 µM; in the assay on SK-OV-3 ovarian, 26.6 µM; with TK-10 renal, 10.3 µM; with UACC-257 melanoma, 15.2 µM. Moreover, the TGI in the assay with A498 renal is more than 65.1 µM; in the assay on CCRF-CEM leukemia, more than 94.4 µM; in the assay on EKVX NSCLC, more than 60.2 µM; with HS 578T breast, more than 91.4 µM; in the assay on MDA-MB-231 breast, 61.9 µM; in the assay with OVCAR-5 ovarian, more than 100 µM. Besides, the TGI with SF-539 CNS is 28.3 µM; in the assay with SK-OV-3 ovarian it was more than 56.2 µM; in the assay with TK-10 renal it was more than 35.9 µM; in the assay on UACC-257 melanoma, more than 57.4 µM.

Turning to `Cn1ccnc1C(=O)/C=C/c1ccc(CC(=O)Nc2ccc(Cl)cc2)cc1`, the GI50 was more than 25 µM in the assay with A498 renal; 1.46 µM with CCRF-CEM leukemia; 15.6 µM in the assay with EKVX NSCLC; 15.7 µM in the assay with HS 578T breast; 5.23 µM in the assay with MDA-MB-231 breast; 9.97 µM with OVCAR-5 ovarian. The GI50 in the assay on SF-539 CNS was 6.4 µM; in the assay on SK-OV-3 ovarian, 8.79 µM; in the assay on TK-10 renal, 12.3 µM; in the assay with UACC-257 melanoma, more than 25 µM. Also, the TGI in the assay with A498 renal, with CCRF-CEM leukemia, with EKVX NSCLC, with HS 578T breast, in the assay with MDA-MB-231 breast and in the assay with OVCAR-5 ovarian was more than 25 µM each time. Besides, the TGI with SF-539 CNS, in the assay on SK-OV-3 ovarian, in the assay on TK-10 renal and with UACC-257 melanoma was more than 25 µM throughout.

On to `C[Si](C)(C)C#CCO[Si](C)(C)C`, for which the TGI is more than 100 µM with A498 renal; more than 64 µM in the assay on CCRF-CEM leukemia; more than 100 µM with EKVX NSCLC; more than 100 µM with HS 578T breast; more than 92.6 µM in the assay with MDA-MB-231 breast; more than 100 µM with OVCAR-5 ovarian. In addition, the TGI is 52.3 µM in the assay with SF-539 CNS, more than 100 µM in the assay with SK-OV-3 ovarian, more than 100 µM in the assay on TK-10 renal and more than 100 µM with UACC-257 melanoma.

`O=C1OC(c2ccco2)=N/C1=C\c1ccc(Cl)c(Cl)c1`: the TGI with A498 renal, in the assay with CCRF-CEM leukemia, in the assay on EKVX NSCLC, with HS 578T breast, in the assay on MDA-MB-231 breast and with OVCAR-5 ovarian was more than 100 µM each time. In addition, the TGI in the assay on SF-539 CNS, in the assay with SK-OV-3 ovarian, with TK-10 renal and in the assay on UACC-257 melanoma was more than 100 µM each time.

For `CN(C)CCNC(=O)c1ccc(Nc2nc3ccccc3c3occc23)cc1`, the GI50 is 12.3 µM in the assay with A498 renal; 3.04 µM in the assay with CCRF-CEM leukemia; 11.7 µM with EKVX NSCLC; 18.6 µM with HS 578T breast; 1.54 µM in the assay on MDA-MB-231 breast; 11.8 µM in the assay on OVCAR-5 ovarian. Also, the GI50 in the assay with SF-539 CNS was 1.83 µM; with SK-OV-3 ovarian, 19.3 µM; with TK-10 renal it was 1.06 µM. For the same compound, the TGI came out at 28.1 µM in the assay with A498 renal; 8.74 µM with CCRF-CEM leukemia; 28.7 µM in the assay on EKVX NSCLC; 42.1 µM in the assay with HS 578T breast; 4.14 µM in the assay on MDA-MB-231 breast; 24.6 µM in the assay with OVCAR-5 ovarian. For the same compound, the TGI in the assay with SF-539 CNS amounted to 3.7 µM; in the assay on SK-OV-3 ovarian, 37.2 µM; in the assay on TK-10 renal, 2.54 µM.

As to `O=C1c2ccccc2-c2c1c1ccccc1c(=O)n2Cc1ccco1`, the TGI with A498 renal, in the assay with CCRF-CEM leukemia, in the assay on EKVX NSCLC, in the assay on HS 578T breast, with MDA-MB-231 breast and with OVCAR-5 ovarian was more than 100 µM in each case. The TGI in the assay on SF-539 CNS, in the assay on SK-OV-3 ovarian, with TK-10 renal and with UACC-257 melanoma was more than 100 µM throughout.

`CC/C=C\C[C@H](O)C/C=C1/C(=O)C=C[C@@H]1C/C=C\CCCC(=O)NC(C)C`: the GI50 with A498 renal is 5.16 µM; in the assay on CCRF-CEM leukemia it was 2.09 µM; with EKVX NSCLC, 4 µM; with HS 578T breast it was 7.74 µM; with MDA-MB-231 breast, 4.72 µM; with OVCAR-5 ovarian it was 4.55 µM. The values for the GI50 with SK-OV-3 ovarian, in the assay with TK-10 renal and with UACC-257 melanoma were 4.57 µM, 3.73 µM and 2.17 µM, respectively. Further, the TGI with A498 renal is 16.3 µM; in the assay with CCRF-CEM leukemia it was 8.38 µM; with EKVX NSCLC it was 15 µM; with HS 578T breast, 49.5 µM; with MDA-MB-231 breast, 16.7 µM; with OVCAR-5 ovarian it was 16.6 µM. Besides, the TGI in the assay on SK-OV-3 ovarian worked out at 14.8 µM; in the assay on TK-10 renal, 9.64 µM; with UACC-257 melanoma, 6.22 µM.

For `CC1=C(C)C(=O)c2c(c(C(=O)c3ccccc3)c3nc4ccccc4n3c2C)C1=O`, the GI50 with A498 renal is more than 100 µM; in the assay with CCRF-CEM leukemia, more than 100 µM; in the assay on EKVX NSCLC, 68.2 µM; in the assay with HS 578T breast, 35.4 µM; in the assay with MDA-MB-231 breast, 17.7 µM; in the assay on OVCAR-5 ovarian, more than 100 µM. In addition, the GI50 with SF-539 CNS was more than 100 µM; in the assay with TK-10 renal, 59.5 µM; with UACC-257 melanoma, 95 µM. The TGI was more than 100 µM in the assay with A498 renal; more than 100 µM in the assay with CCRF-CEM leukemia; more than 100 µM in the assay on EKVX NSCLC; more than 100 µM with HS 578T breast; 46 µM with MDA-MB-231 breast; more than 100 µM with OVCAR-5 ovarian. The TGI in the assay with SF-539 CNS, in the assay on TK-10 renal and in the assay with UACC-257 melanoma was more than 100 µM each time.

For the compound `O=C(Nc1ccc(-c2nc3cc4ccccc4cc3[nH]2)cc1)c1cccc(Br)c1`, the GI50 is 47.1 µM with A498 renal; 9.55 µM in the assay with CCRF-CEM leukemia; 14.3 µM with HS 578T breast; 3.11 µM with MDA-MB-231 breast; 22.6 µM in the assay on OVCAR-5 ovarian; 12.9 µM with SF-539 CNS. Moreover, the figures for the GI50 in the assay on SK-OV-3 ovarian, in the assay with TK-10 renal and in the assay with UACC-257 melanoma were 16.3 µM, 4 µM and 21 µM, respectively. For the same compound, the TGI in the assay on A498 renal is more than 100 µM; in the assay on CCRF-CEM leukemia it was 80.4 µM; in the assay with HS 578T breast, 46.2 µM; in the assay with MDA-MB-231 breast, 19.3 µM; with OVCAR-5 ovarian, 68.3 µM; with SF-539 CNS, 26.7 µM. Further, the TGI with SK-OV-3 ovarian came out at 32.8 µM; with TK-10 renal it was 11.3 µM; in the assay on UACC-257 melanoma it was 52.3 µM.
